# pIC50: −log10 of the molar value.
# Target: T1, RAF-1 (Homo sapiens, UniProt P04049)
# T1 construct: made in house; host or cells: Sf9 (Spodoptera frugiperda) cells co-infected with RAS and RAF recombinant baculoviruses
# Test: RAF-1 ELISA phosphorylation assay (RAF-catalyzed phosphorylation of MEK and MAPK)
# Assay type: biochemical
# Details: RAF-1 phosphorylation assay, lysates from RAS/RAF infected Sf9 cells, substrates T-MEK and His-MAPK
# Source text: The following assay reports the amount of RAF-catalyzed phosphorylation of its target protein MEK as well as MEK's target MAPK. The RAF gene sequence is described in Bonner et al., 1985, Molec. Cell. Biol. 5: 1400-1407, and is readily accessible in multiple gene sequence data banks. Construction of the nucleic acid vector and cell lines utilized for this portion of the invention are fully described in Morrison et al., 1988, Proc. Natl. Acad. Sci. USA 85: 8855-8859.
# • 1. Sf9 (Spodoptera frugiperda) cells; GIBCO-BRL, Gaithersburg, Md. • 2. RIPA buffer: 20 mM Tris/HCl pH 7.4, 137 mM NaCl, 10% glycerol, 1 mM PMSF, 5 mg/L Aprotenin, 0.5% Triton X-100; • 3. Thioredoxin-MEK fusion protein (T-MEK): T-MEK expression and purification by affinity chromatography were performed according to the manufacturer's procedures. Catalog#K 350-01 and R 350-40, Invitrogen Corp., San Diego, Calif. • 4. His-MAPK (ERK 2); His-tagged MAPK was expressed in XL1 Blue cells transformed with pUC18 vector encoding His-MAPK. His-MAPK was purified by Ni-affinity chromatography. Cat#27-4949-01, Pharmacia, Alameda, Calif., as described herein. • 5. Sheep anti mouse IgG: Jackson laboratories, West Grove, Pa. Catalog, #515-006-008, Lot#28563 • 6. RAF-1 protein kinase specific antibody: URP2653 from UBI. • 7. Coating buffer: PBS; phosphate buffered saline, GIBCO-BRL, Gaithersburg, Md. • 8. Wash buffer: TBST-50 mM Tris/HCL pH 7.2, 150 mM NaCl, 0.1% Triton X-100 • 9. Block buffer: TBST, 0.1% ethanolamine pH 7.4 • 10. DMSO, Sigma, St. Louis, Mo. • 11. Kinase buffer (KB): 20 mM Hepes/HC1 pH 7.2, 150 mM NaCl, 0.1% Triton X-100, 1 mM PMSF, 5 mg/L Aprotenin, 75 μM sodium ortho vanadate, 0.5 MM DTT and 10 mM MgCl2. • 12. ATP mix: 100 mM MgCl2, 300 μM ATP, 10 μCi γ-^33P ATP (Dupont-NEN)/mL. • 13 Stop solution: 1% phosphoric acid; Fisher, Pittsburgh, Pa. • 14. Wallac Cellulose Phosphate Filter mats; Wallac, Turku, Finnland. • 15. Filter wash solution: 1% phosphoric acid, Fisher, Pittsburgh, Pa. • 16. Tomtec plate harvester, Wallac, Turku, Finnland. • 17. Wallac beta plate reader #1205, Wallac, Turku, Finnland. • 18. NUNC 96-well V bottom polypropylene plates for compounds Applied Scientific Catalog #AS-72092. Procedure
# All of the following steps were conducted at room temperature unless specifically indicated. • 1. ELISA plate coating: ELISA wells are coated with 100 μL of Sheep anti mouse affinity purified antiserum (1 μg/100 μL coating buffer) over night at 4° C. ELISA plates can be used for two weeks when stored at 4° C. • 2. Invert the plate and remove liquid. Add 100 μL of blocking solution and incubate for 30 min. • 3. Remove blocking solution and wash four times with wash buffer. Pat the plate on a paper towel to remove excess liquid. • 4. Add 1 μg of antibody specific for RAF-1 to each well and incubate for 1 hour. Wash as described in step 3. • 5. Thaw lysates from RAS/RAF infected Sf9 cells and dilute with TBST to 10 μg/100 μL. Add 10 μg of diluted lysate to the wells and incubate for 1 hour. Shake the plate during incubation. Negative controls receive no lysate. Lysates from RAS/RAF infected Sf9 insect cells are prepared after cells are infected with recombinant baculoviruses at a MOI of 5 for each virus, and harvested 48 hours later. The cells are washed once with PBS and lysed in RIPA buffer. Insoluble material is removed by centrifugation (5 min at 10,000×g). Aliquots of lysates are frozen in dry ice/ethanol and stored at −80° C. until use. • 6. Remove non-bound material and wash as outlined above (step 3). • 7. Add 2 μg of T-MEK and 2 μg of His-MAEPK per well and adjust the volume to 40 μL with kinase buffer. Methods for purifying T-MEK and MAPK from cell extracts are provided herein by example. • 8. Predilute compounds (stock solution 10 mg/mL DMSO) or extracts 20 fold in TBST plus 1% DMSO. Add 5 μL of the prediluted compounds/extracts to the wells described in step 6. Incubate for 20 min. Controls receive no drug. • 9. […]
# T1 sequence (P04049 whole entry): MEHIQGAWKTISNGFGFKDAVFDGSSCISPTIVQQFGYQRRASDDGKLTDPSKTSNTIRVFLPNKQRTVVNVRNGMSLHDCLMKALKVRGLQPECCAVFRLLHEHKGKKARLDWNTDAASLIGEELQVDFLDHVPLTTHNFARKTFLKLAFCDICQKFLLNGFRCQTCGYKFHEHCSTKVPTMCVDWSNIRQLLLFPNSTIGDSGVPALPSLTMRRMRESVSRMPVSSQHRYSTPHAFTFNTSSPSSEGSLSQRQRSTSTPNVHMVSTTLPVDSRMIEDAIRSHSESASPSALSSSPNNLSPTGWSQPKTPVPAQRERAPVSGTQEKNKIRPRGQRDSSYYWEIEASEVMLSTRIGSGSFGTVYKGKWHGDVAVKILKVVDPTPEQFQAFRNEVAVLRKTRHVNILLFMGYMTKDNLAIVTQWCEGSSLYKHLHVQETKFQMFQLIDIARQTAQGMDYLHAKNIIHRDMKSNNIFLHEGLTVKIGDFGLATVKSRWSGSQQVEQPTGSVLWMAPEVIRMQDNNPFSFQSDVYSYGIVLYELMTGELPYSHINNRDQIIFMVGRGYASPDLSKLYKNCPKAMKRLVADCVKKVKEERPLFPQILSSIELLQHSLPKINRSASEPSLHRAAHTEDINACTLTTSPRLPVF
row,pIC50,SMILES
1,5.24,"Nc1nc(N)c2c(Oc3ccc(F)cc3)cccc2n1 [Compound A-7, 2,4-Diamino-5-(4-fluorophenoxy)quinazoline]"
2,< 4.00,"CC(C)(C)c1ccc(Oc2cccc3nc(N)nc(N)c23)cc1 [Compound A-8, 2,4-Diamino-5-(4-tert-butylphenoxy)quinazoline]"
3,6.52,"Nc1ncnc2cccc(Oc3ccc(OCc4ccccc4)cc3)c12 [Compound A-28, 4-Amino-5-(4-benzyloxyphenoxy)quinazoline]"
4,6.10,"COc1ccc(Oc2cccc3nc(N)nc(N)c23)cc1 [Compound A-6, 2,4-Diamino-5-(4-methoxyphenoxy)quinazoline]"
5,5.19,"COc1cccc(Oc2cccc3nc(N)nc(N)c23)c1 [Compound A-23, 2,4-Diamino-5-(3-methoxyphenoxy)quinazoline]"
6,4.70,"COc1ccccc1Oc1cccc2nc(N)nc(N)c12 [Compound A-22, 2,4-Diamino-5-(2-methoxyphenoxy)quinazoline]"
7,6.52,"Nc1nc(N)c2c(Oc3ccccc3)cccc2n1 [Compound A-1, 2,4-Diamino-5-phenoxyquinazoline]"
8,5.35,"Cc1ccc(Oc2cccc3nc(N)nc(N)c23)cc1 [Compound A-9, 2,4-Diamino-5-(4-methylphenoxy)quinazoline]"

# — US6911446B2, “Methods of modulating serine/threonine protein kinase function with quinazoline-based compounds” (Sugen, Inc., priority 1997, dated 2005)
